Test results from article PMC10709440, “High-throughput ligand profile characterization in novel cell lines expressing seven heterologous insect olfactory receptors for the detection of volatile plant biomarkers” (Scientific Reports, 2023).
Like-named read-outs stand apart in the source and are kept apart here.

Columns and labels:
Drosophila OR49b = biological target: T1, Drosophila OR49b (Drosophila melanogaster, UniProt Q9V6H2); test: cell-based; details: for activation at 1 µM / activation at 10 µM / activation at 100 µM: HEK293; for Average response: mean of biological replicates
T1 construct: expressed in transfected cells
T1 sequence (Q9V6H2 1-375): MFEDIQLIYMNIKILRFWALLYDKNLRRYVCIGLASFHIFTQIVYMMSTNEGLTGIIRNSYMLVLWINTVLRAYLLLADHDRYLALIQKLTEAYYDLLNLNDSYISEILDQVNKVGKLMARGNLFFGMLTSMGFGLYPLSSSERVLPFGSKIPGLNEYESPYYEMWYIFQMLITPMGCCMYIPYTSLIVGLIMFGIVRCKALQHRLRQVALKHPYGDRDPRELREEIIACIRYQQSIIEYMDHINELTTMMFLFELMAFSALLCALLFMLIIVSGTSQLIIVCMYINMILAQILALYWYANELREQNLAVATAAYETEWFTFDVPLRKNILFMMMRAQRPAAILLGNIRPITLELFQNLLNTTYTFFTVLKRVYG
T1 sequence (Q9VNB5 1-486 partner): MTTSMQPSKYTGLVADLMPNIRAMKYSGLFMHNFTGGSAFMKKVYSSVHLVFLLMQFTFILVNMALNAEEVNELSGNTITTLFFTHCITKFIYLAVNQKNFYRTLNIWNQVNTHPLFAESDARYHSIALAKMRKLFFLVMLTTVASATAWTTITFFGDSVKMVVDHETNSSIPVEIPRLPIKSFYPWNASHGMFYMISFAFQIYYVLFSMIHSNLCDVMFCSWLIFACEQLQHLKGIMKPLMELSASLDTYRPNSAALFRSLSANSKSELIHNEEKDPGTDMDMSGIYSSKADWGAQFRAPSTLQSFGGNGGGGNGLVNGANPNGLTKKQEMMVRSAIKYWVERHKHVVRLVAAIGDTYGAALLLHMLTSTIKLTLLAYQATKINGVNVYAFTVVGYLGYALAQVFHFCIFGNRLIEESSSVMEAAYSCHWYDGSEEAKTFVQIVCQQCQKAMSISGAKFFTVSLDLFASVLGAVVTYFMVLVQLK
Experimental: (§1) These VUAA1 normalized ∆F values were used to compare the different receptors and ligands.
(§2) The concentration-dependent effect of the reference ligands on their cognate cell lines was examined in more detail. Twelve different ligand concentrations were measured on each cell line in an overall 0.01 μM to 100 μM concentration range with 5 repetitions with three technical replicates each time.
(§3) Twelve thousand to 18,000 cells were plated into each well of a black wall, transparent bottom 384-well microplate (Greiner) 48 h or 72 h before the measurements and were simultaneously treated with 1 μg/mL doxycycline. […] The plate has 24 columns, thus we could record responses in up to eight different cell lines in each plate. On the day of the experiment, the growth medium was replaced with 20 µL assay buffer/well (140 mM NaCl, 5 mM KCl, 2 mM CaCl2, 1 mM MgCl2, 5 mM HEPES-Na, 20 mM glucose, pH 7.3, 340 mOsm). […] Baseline fluorescence (F0) was recorded for 5 s, after which 7 µL VOC buffer (140 mM NaCl, 5 mM KCl, 2 mM CaCl2, 1 mM MgCl2, 5 mM HEPES-Na, 31 mM glucose, 0.1% DMSO, pH 7.3, 340 mOsm) was injected into each well in one row and the fluorescence response was recorded for an additional 30 s, at a rate of one read/sec. VOC solutions (VOC buffer with 4× concentration of the final measured VOC concentration, 9 µL/well was injected) were measured on the same wells in a second round with the same protocol. Each individual concentration of a specific VOC sample was recorded in three wells for the same cell line on the same microplate. The raw data were exported in xls file format, F0 and FMAX values, and the fluorescence intensity changes (∆F) were calculated in Excel (Microsoft) (Supplementary file Data summary.xlsx) using the following equation: ΔF=FMAX-F0/F0 (see also Fig. 1C). On each plate, we recorded the response of each cell line to 50 µM VUAA1. The average of these ∆F values of each cell line were used to calculate the VUAA1-normalized values for the rest of the plate, by dividing VOC response ∆F values by the average VUAA1 response ∆F value of the corresponding OR cell line. Each VOC-OR combination was measured three times as technical replicates. […] The average of these replicates were used as one ∆F and VUAA1-normalized ∆F in the following analysis.
(§4) In the next rows we tested the reference VOCs (or other VOCs known to activate the corresponding cell lines), in order to test if all cell lines are responsive. The remaining rows were used to test VOCs with unknown effect.
(§5) The recorded FMAX, F0, ∆F, VUAA1-normalized ∆F values, as well as the OR name, the name of the tested sample, and the final concentration for each well were copied into supplementary file Data summary.xlsx, that was used to summarize all the plates recorded. Here, the averages of the measurements were calculated for each receptor-VOC-concentration combination.

Drosophila OR71a = biological target: T2, Drosophila OR71a (Drosophila melanogaster, UniProt Q9VUK5); test: Calcium ion fluorescence (GCaMP6) assay, OR71a stable HEK293 cell line; format: cell-based; details: for activation at 1 µM / activation at 10 µM / activation at 100 µM: HEK293, read-out: OR71a response (VUAA1-normalized response); for Average response: VUAA1-normalized response, mean of biological replicates
T2 construct: expressed in transfected cells
T2 sequence (Q9VUK5 1-378): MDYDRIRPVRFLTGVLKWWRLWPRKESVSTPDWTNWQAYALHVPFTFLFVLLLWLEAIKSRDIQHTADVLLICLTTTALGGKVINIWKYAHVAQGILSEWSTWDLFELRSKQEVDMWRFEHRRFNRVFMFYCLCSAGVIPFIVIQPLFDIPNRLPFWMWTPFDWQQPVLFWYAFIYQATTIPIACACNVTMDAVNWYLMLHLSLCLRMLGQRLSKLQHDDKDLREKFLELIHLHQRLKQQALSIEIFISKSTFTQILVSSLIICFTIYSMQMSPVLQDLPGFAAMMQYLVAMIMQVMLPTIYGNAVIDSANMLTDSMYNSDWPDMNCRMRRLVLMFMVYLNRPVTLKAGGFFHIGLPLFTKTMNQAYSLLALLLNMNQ
T2 sequence (Q9VNB5 1-486 partner): T1 sequence (Q9VNB5 1-486 partner)
Experimental: as §1, §2, §3, §4, §5

[1] = VOC concentration 1 μM, read-out: OR49b response (VUAA1-normalized response)
[2] = VOC concentration 10 μM, read-out: OR49b response (VUAA1-normalized response)
[3] = VOC concentration 100 μM, read-out: OR49b response (VUAA1-normalized response)
[4] = OR49b cell line, odorant cc. 1 µM
[5] = OR49b cell line, odorant cc. 10 µM
[6] = OR49b cell line, odorant cc. 100 µM
[7] = ligand concentration 1 (unit not given), threshold 0.05, below shown as 0
[8] = ligand concentration 10 (unit not given), threshold 0.05, below shown as 0
[9] = ligand concentration 100 (unit not given), threshold 0.05, below shown as 0
[10] = 1 μM VOC, 50 μM VUAA1 = 1, read-out: OR49b Average response (VUAA1-normalized)
[11] = 10 μM VOC, 50 μM VUAA1 = 1, read-out: OR49b Average response (VUAA1-normalized)
[12] = 100 μM VOC, 50 μM VUAA1 = 1, read-out: OR49b Average response (VUAA1-normalized)
[13] = concentration 1, normalized fluorescence change, values below 0.05 threshold given as 0
[14] = concentration 10, normalized fluorescence change, values below 0.05 threshold given as 0
[15] = concentration 100, normalized fluorescence change, values below 0.05 threshold given as 0

| SMILES | activation at 1 µM (Drosophila OR49b; [1]) | activation at 10 µM (Drosophila OR49b; [2]) | activation at 100 µM (Drosophila OR49b; [3]) | Average response (Drosophila OR49b; [4]) | Average response (Drosophila OR49b; [5]) | Average response (Drosophila OR49b; [6]) | DF norm AVERAGE OR49b (Drosophila OR49b; [7]) | DF norm AVERAGE OR49b (Drosophila OR49b; [8]) | DF norm AVERAGE OR49b (Drosophila OR49b; [9]) | activation at 1 µM (Drosophila OR71a) | activation at 10 µM (Drosophila OR71a) | activation at 100 µM (Drosophila OR71a) | Average response (Drosophila OR71a; OR71a cell line, cc. 1 µM) | Average response (Drosophila OR71a; OR71a cell line, cc. 10 µM) | Average response (Drosophila OR71a; OR71a cell line, cc. 100 µM) | DF norm AVERAGE OR71a (Drosophila OR71a; [7]) | DF norm AVERAGE OR71a (Drosophila OR71a; [8]) | DF norm AVERAGE OR71a (Drosophila OR71a; [9]) | activation at 1 µM (Drosophila OR49b; [10]) | activation at 10 µM (Drosophila OR49b; [11]) | further results |
| --- | --- | --- | --- | --- | --- | --- | --- | --- | --- | --- | --- | --- | --- | --- | --- | --- | --- | --- | --- | --- | --- |
| C=C1CCC2CC1C2(C)C (stereo not drawn) [beta-pinene] | 6.58% | 5% | 0% | 0.0658 | 0.05 | 0.00 | 0.06581 | 0.05055 | 0 | 0% | 0% | 0% | 0.0344 | 0.0361 | 0.00 | 0 | 0 | 0 | – | – | – |
| Cc1cccc(O)c1 [3-methylphenol] | 0% | 13% | 43% | 0.00 | 0.13 | 0.43 | – | – | – | 0% | 0% | 0% | 0.03 | 0.0152 | 0.0133 | – | – | – | 0% | 13% | activation at 100 µM (Drosophila OR49b; [12]): 43%; DF norm AVERAGE OR71a (Drosophila OR71a; [13]): 0; DF norm AVERAGE OR71a (Drosophila OR71a; [14]): 0; DF norm AVERAGE OR71a (Drosophila OR71a; [15]): 0 |
| OCCc1ccccc1 [phenethyl alcohol] | – | – | – | 0.0257 | 0.00 | 0.09 | 0 | 0 | 0.09318 | – | – | – | 0.09 | 0.03 | 0.0218 | 0.08619 | 0 | 0 | – | – | OR49b response (VUAA1-normalized) at 1 μM (Drosophila OR49b; OR49b cell line, VOC concentration 1 μM): 0.00; OR49b response (VUAA1-normalized) at 10 μM (Drosophila OR49b; OR49b cell line, VOC concentration 10 μM): 0.00; OR49b response (VUAA1-normalized) at 100 μM (Drosophila OR49b; OR49b cell line, VOC concentration 100 μM): 0.09; OR71a response (VUAA1-normalized) at 1 μM (Drosophila OR71a; OR71a cell line, VOC concentration 1 μM): 0.09; OR71a response (VUAA1-normalized) at 10 μM (Drosophila OR71a; OR71a cell line, VOC concentration 10 μM): 0.00; OR71a response (VUAA1-normalized) at 100 μM (Drosophila OR71a; OR71a cell line, VOC concentration 100 μM): 0.00 |
| O=Cc1ccccc1 [benzaldehyde] | 0% | 0% | 23% | 0.00 | 0.0283 | 0.23 | 0 | 0 | 0.2265 | 0% | 0% | 0% | 0.03 | 0.00 | 0.00 | 0 | 0 | 0 | 0% | 3% | activation at 100 µM (Drosophila OR49b; [12]): 23% |
| CC(=O)OCCC(C)C [isopentyl acetate] | 0% | 0% | 15% | 0.00 | 0.00 | 0.15 | 0 | 0 | 0.1516 | 0% | 0% | 0% | 0.0333 | 0.037 | 0.0218 | 0 | 0 | 0 | 0% | 0% | activation at 100 µM (Drosophila OR49b; [12]): 15% |
| COc1cccc(OC)c1 [1,3-dimethoxy benzene] | 0% | 0% | 0% | 0.00 | 0.00 | 0.00 | – | – | – | 0% | 0% | 0% | 0.00 | 0.04 | 0.00 | – | – | – | – | – | DF norm AVERAGE OR49b (Drosophila OR49b): 0; DF norm AVERAGE OR71a (Drosophila OR71a; [13]): 0; DF norm AVERAGE OR71a (Drosophila OR71a; [14]): 0; DF norm AVERAGE OR71a (Drosophila OR71a; [15]): 0 |
| CC1=CCC[C@@]2(C)[C@@H]3CC[C@]12CC3(C)C [(−)-α-neoclovene] | – | – | – | 0.00 | 0.00 | 0.00 | – | – | – | – | – | – | 0.00 | 0.00 | 0.0221 | – | – | – | – | – | DF norm AVERAGE OR49b (Drosophila OR49b): 0; OR49b response (VUAA1-normalized response) (Drosophila OR49b; VOC concentration 1 μM): 0.00; OR49b response (VUAA1-normalized response) (Drosophila OR49b; VOC concentration 10 μM): 0.00; OR49b response (VUAA1-normalized response) (Drosophila OR49b; VOC concentration 100 μM): 0.00; OR71a response (VUAA1-normalized response) (Drosophila OR71a; VOC concentration 1 μM): 0.00; OR71a response (VUAA1-normalized response) (Drosophila OR71a; VOC concentration 10 μM): 0.00; OR71a response (VUAA1-normalized response) (Drosophila OR71a; VOC concentration 100 μM): 0.00; DF norm AVERAGE OR71a (Drosophila OR71a; [13]): 0; DF norm AVERAGE OR71a (Drosophila OR71a; [14]): 0; DF norm AVERAGE OR71a (Drosophila OR71a; [15]): 0 |
